# Experimental data reported in patent EP0553186B1, “METHOD FOR PRODUCING T H?-I[…] T LYMPHOCYTES” (IMMUNEX CORPORATION, priority 1990, dated 1992).
# Test system: CD8^+ T cell clone T81
# Assay: Outgrowth of T81 CTL under G418 drug selection
# Assay type: cell-based, mouse
# Conditions: parental T81 cells, doses used for selection
# Protocol: • A. Selection of CD8^+T cell clone T81 transduced with retroviral vector L.IL-1RSN encoding murine IL-1R. The retroviral vector L.IL-1RSN encoding the murine IL-1 receptor was introduced into the tumor specific CD3^+, CD8^+ T cell clone T81 as follows. T81 is specific for an antigen expressed on the K1735 mouse melanoma cell line. T81 was propagated by stimulation every 8-10 days with tumor antigen and irradiated syngeneic splenocytes as feeder cells. Recombinant IL-2 (50 U/ml) was added to the cultures 48 hours following stimulation. […] The cells were analyzed for M5 binding on a Beckton-Dickinson FACscan analyzer. […] The IL-1 receptors on the T81 cells infected with the L.IL-1RSN vector were analyzed for ^125I-IL-1α binding as previously described (Dower et al., Nature (Lond) 324 :266,1986). […] Nonspecific binding of ^125I-IL-1 was measured by incubation in the presence of an excess of unlabelled IL-1. At the end of the incubation, bound and free ^125I-IL-1 were separated by centrifugation over a phthalate oil mixture and the amount of radiolabel in each fraction measured. The data were corrected for non-specific binding and then analyzed by nonlinear least square fitting to estimate the number of IL-1R/cell. […]
smiles,measurement,value
CN[C@@H]1[C@@H](O)[C@@H](O[C@@H]2[C@@H](O)[C@H](O[C@H]3O[C@H]([C@@H](C)O)[C@@H](O)[C@H](O)[C@H]3N)[C@@H](N)C[C@H]2N)OC[C@]1(C)O [G418],toxicity of G418 to cells,toxic to the parental cells
